{"source": "patent US20030125352A1", "about": "“Therapeutic tropane compounds” (priority 2001, published 2003)", "key": {"DAT": {"system": "DAT", "settings": "literature value, cited from earlier work; for IC50: binding to the DAT"}, "dopamine transporter": {"target": "T1, dopamine transporter (Macaca fascicularis, UniProt Q9GJT6)", "T1 construct": "The caudate-putamen was dissected from coronal slices and yielded 1.4±0.4 g tissue; Membranes were prepared as described previously; from tissue; host or cells: caudate-putamen membranes of adult cynomolgus and rhesus monkeys", "T1 sequence (Q9GJT6 whole entry)": "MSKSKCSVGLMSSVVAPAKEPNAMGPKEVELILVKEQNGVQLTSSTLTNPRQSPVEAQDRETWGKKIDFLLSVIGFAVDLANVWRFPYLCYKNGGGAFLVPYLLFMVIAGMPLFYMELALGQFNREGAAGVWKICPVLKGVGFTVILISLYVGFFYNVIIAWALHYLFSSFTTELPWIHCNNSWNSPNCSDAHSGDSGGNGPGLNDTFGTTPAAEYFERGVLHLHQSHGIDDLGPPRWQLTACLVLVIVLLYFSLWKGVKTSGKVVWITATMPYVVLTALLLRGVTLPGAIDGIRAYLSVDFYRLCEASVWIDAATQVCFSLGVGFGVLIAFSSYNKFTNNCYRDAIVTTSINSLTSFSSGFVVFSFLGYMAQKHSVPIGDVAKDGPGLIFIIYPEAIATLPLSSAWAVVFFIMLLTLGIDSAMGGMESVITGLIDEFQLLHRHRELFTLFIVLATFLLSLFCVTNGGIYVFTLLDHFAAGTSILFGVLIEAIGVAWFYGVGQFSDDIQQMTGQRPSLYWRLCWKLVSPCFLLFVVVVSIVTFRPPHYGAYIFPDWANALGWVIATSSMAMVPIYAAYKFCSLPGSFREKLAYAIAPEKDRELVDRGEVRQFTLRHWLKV", "experiment": "Dopamine transporter assay: inhibition of {3H}WIN 35,428 binding in caudate-putamen membranes", "set-up": "species or system rhesus or cynomolgus monkey", "settings": "for IC50: {3H}WIN 35,428 binding, monkey caudate-putamen; for SERT/DAT: selectivity ratio of IC50 values"}, "serotonin transporter": {"target": "T2, serotonin transporter (Macaca mulatta, UniProt Q9MYX0)", "T2 construct": "The serotonin transporter was assayed in caudate-putamen membranes using conditions similar to those for the dopamine transporter; from tissue; host or cells: caudate-putamen membranes of adult cynomolgus and rhesus monkeys", "T2 sequence (Q9MYX0 whole entry)": "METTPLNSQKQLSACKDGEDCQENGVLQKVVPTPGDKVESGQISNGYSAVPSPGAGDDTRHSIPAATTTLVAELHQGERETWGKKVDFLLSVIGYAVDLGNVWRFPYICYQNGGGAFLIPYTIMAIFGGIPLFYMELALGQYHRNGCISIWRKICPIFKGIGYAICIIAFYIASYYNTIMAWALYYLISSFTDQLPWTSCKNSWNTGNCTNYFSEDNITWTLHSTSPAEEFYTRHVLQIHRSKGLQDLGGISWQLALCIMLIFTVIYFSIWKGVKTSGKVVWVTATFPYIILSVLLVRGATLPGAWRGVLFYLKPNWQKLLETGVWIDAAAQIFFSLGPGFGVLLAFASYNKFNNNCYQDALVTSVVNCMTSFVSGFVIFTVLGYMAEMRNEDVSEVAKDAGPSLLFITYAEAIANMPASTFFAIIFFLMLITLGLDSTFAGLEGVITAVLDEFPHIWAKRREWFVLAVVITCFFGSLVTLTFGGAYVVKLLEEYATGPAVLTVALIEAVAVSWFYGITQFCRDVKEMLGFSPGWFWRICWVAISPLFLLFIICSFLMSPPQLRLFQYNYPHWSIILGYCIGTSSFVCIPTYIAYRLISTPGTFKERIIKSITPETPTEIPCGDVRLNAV", "experiment": "Serotonin transporter assay: inhibition of {3H}citalopram binding in caudate-putamen membranes", "set-up": "species or system rhesus or cynomolgus monkey"}, "[1]": {"settings": "IC50 (nM) SERT, Table 2, monkey caudate-putamen"}, "[2]": {"settings": "Table 2, monkey caudate-putamen, read-out: IC50 (nM) SERT"}, "[3]": {"settings": "Table 2, read-out: IC50 (nM) DAT"}}, "note": "Like-named read-outs stand apart in the source and are kept apart here.", "data": [{"smiles": "COC(=O)C1C(c2ccc(Cl)c(Cl)c2)CC2CCC1N2C", "note": "(stereo not drawn) [Compound O-401, 2-carbomethoxy-3-(3,4-dichlorophenyl)-N -methyltropane]", "values": [{"measurement": "IC50", "setting": "DAT", "value": 1.09, "unit": "nM"}]}, {"smiles": "COC(=O)C1C(c2ccc(Cl)c(Cl)c2)CC2CC(O)C1N2C", "note": "(single isomer, unassigned) [(1R)-18a]", "values": [{"measurement": "IC50", "setting": "dopamine transporter; IC50 (nM) DAT, Table 2", "value": 482, "unit": "nM"}, {"measurement": "SERT/DAT", "setting": "dopamine transporter; Table 2", "value": 11}, {"measurement": "IC50", "setting": "serotonin transporter; [1]", "value": 5300, "unit": "nM"}]}, {"smiles": "COC(=O)C1C(c2ccc3ccccc3c2)CC2CC(O)C1N2C", "note": "(stereo not drawn) [Compound 18b, 2β-Carbomethoxy-3α-(2-naphthyl)-7β-hydroxy-8-methyl-8-azabicyclo{3.2.1}octane]", "values": [{"measurement": "SERT/DAT", "setting": "dopamine transporter; Table 2", "value": 34}, {"measurement": "IC50", "setting": "serotonin transporter; [2]", "value": 94, "unit": "nM"}]}, {"smiles": "COC(=O)[C@@H]1[C@H]2C[C@H](O)[C@@H](C[C@H]1c1ccc(Cl)c(Cl)c1)N2C", "note": "(relative stereo) [Compound 17a, 2β-Carbomethoxy-3α-(3,4-dichlorophenyl) -6β-hydroxy-8-methyl-8-azabicyclo{3.2.1}octane]", "values": [{"measurement": "IC50", "setting": "dopamine transporter; IC50 (nM) DAT, Table 2", "value": 6.09, "unit": "nM"}, {"measurement": "SERT/DAT", "setting": "dopamine transporter; Table 2", "value": 238}, {"measurement": "IC50", "setting": "serotonin transporter; [1]", "value": 1450, "unit": "nM"}]}, {"smiles": "CCC(=O)C1C(c2ccc(Cl)c(Cl)c2)CC2CC(O)C1N2C", "note": "(stereo not drawn) [Compound 26, 1-{3α-(3,4-Dichlorophenyl)-7β-hydroxy-8-methyl-8-azabicyclo{3.2.1}oct-2-yl}propan-1-one]", "values": [{"measurement": "IC50", "setting": "dopamine transporter; Table 1, read-out: IC50 (nM) DAT", "value": 1.1, "unit": "nM"}, {"measurement": "IC50", "setting": "serotonin transporter; Table 1, monkey caudate-putamen, read-out: IC50 (nM) SERT", "value": 2520, "unit": "nM"}]}, {"smiles": "COC(=O)C1C(c2ccc(F)cc2)CC2CCC1N2C", "note": "(stereo not drawn) [WIN 35,428, 2-carbomethoxy-3-(4-fluorophenyl)-N-methyltropane]", "values": [{"measurement": "IC50", "setting": "DAT", "value": "[…]"}]}, {"smiles": "COC(=O)[C@@H]1[C@H]2[C@H](O)C[C@@H](C[C@H]1c1ccc(F)cc1)N2C", "note": "[Compound 18c, 2β-Carbomethoxy-3α-(4-fluorophenyl)-7β-hydroxy-8-methyl-8-azabicyclo{3.2.1}octane]", "values": [{"measurement": "SERT/DAT", "setting": "dopamine transporter; Table 2", "value": ">120"}, {"measurement": "IC50", "setting": "dopamine transporter; [3]", "value": 110, "unit": "nM"}, {"measurement": "IC50", "setting": "serotonin transporter; [2]", "value": "> 20000", "unit": "nM"}]}, {"smiles": "COC(=O)[C@H]1[C@@H](OC(=O)c2ccccc2)C[C@@H]2CC[C@H]1N2C", "note": "[(1R)-(−)-cocaine]", "values": [{"measurement": "binds at the dopamine transporter more potently than (1S)-(+)-cocaine", "setting": "DAT", "value": "about 200 fold"}]}, {"smiles": "COC(=O)[C@@H]1[C@H]2C[C@H](O)[C@@H](C[C@H]1c1ccccc1)N2C", "note": "(relative stereo) [Compound 17d, 2β-Carbomethoxy-3α-phenyl-6β-hydroxy-8-methyl-8-azabicyclo{3.2.1}octane]", "values": [{"measurement": "IC50", "setting": "dopamine transporter; IC50 (nM) DAT, Table 2", "value": 3530, "unit": "nM"}, {"measurement": "SERT/DAT", "setting": "dopamine transporter; Table 2", "value": ">3"}, {"measurement": "IC50", "setting": "serotonin transporter; [1]", "value": "> 10000", "unit": "nM"}]}, {"smiles": "COC(=O)C1C(c2ccc3ccccc3c2)CC2C(O)CC1N2C", "note": "(stereo not drawn) [Compound 17b, 2β-Carbomethoxy-3α-(2-naphthyl)-6β-hydroxy-8-methyl-8-azabicyclo{3.2.1}octane]", "values": [{"measurement": "SERT/DAT", "setting": "dopamine transporter; Table 2", "value": 6}, {"measurement": "IC50", "setting": "dopamine transporter; [3]", "value": 32, "unit": "nM"}, {"measurement": "IC50", "setting": "serotonin transporter; [2]", "value": 180, "unit": "nM"}]}, {"smiles": "COC(=O)[C@@H]1[C@H]2[C@H](O)C[C@@H](C[C@H]1c1ccc(Cl)c(Cl)c1)N2C", "note": "(relative stereo) [Compound 18a, 2β-Carbomethoxy-3α(3,4-dichlorophenyl)-7β-hydroxy-8-methyl-8-azabicyclo{3.2.1}octane]", "values": [{"measurement": "IC50", "setting": "dopamine transporter; IC50 (nM) DAT, Table 2", "value": 1.19, "unit": "nM"}, {"measurement": "SERT/DAT", "setting": "dopamine transporter; Table 2", "value": "1,170"}, {"measurement": "IC50", "setting": "serotonin transporter; [1]", "value": 1390, "unit": "nM"}]}, {"smiles": "COC(=O)[C@@H]1[C@H]2[C@H](O)C[C@@H](C[C@H]1c1ccccc1)N2C", "note": "(relative stereo) [Compound 18d, 2β-Carbomethoxy-3α-phenyl-7β-hydroxy-8-methyl-8-azabicyclo{3.2.1}octane]", "values": [{"measurement": "IC50", "setting": "dopamine transporter; IC50 (nM) DAT, Table 2", "value": 518, "unit": "nM"}, {"measurement": "SERT/DAT", "setting": "dopamine transporter; Table 2", "value": ">190"}, {"measurement": "IC50", "setting": "serotonin transporter; [1]", "value": "> 100000", "unit": "nM"}]}, {"smiles": "COC(=O)C1C(c2ccc(Cl)c(Cl)c2)CC2CC(O)C1N2C", "note": "(single isomer, unassigned) [(1S)-18a]", "values": [{"measurement": "IC50", "setting": "dopamine transporter; IC50 (nM) DAT, Table 2", "value": 0.76, "unit": "nM"}, {"measurement": "IC50", "setting": "serotonin transporter; [1]", "value": 1220, "unit": "nM"}]}, {"smiles": "COC(=O)[C@@H]1[C@H]2CC[C@@H](C[C@H]1c1ccc(Cl)c(Cl)c1)N2C", "note": "[Compound 16a]", "values": [{"measurement": "IC50", "setting": "dopamine transporter; IC50 (nM) DAT, Table 2", "value": 0.38, "unit": "nM"}, {"measurement": "SERT/DAT", "setting": "dopamine transporter; Table 2", "value": 73}, {"measurement": "IC50", "setting": "serotonin transporter; [1]", "value": 27.7, "unit": "nM"}]}, {"smiles": "COC(=O)[C@@H]1[C@H]2CC[C@@H](C[C@H]1c1ccc(F)cc1)N2C", "note": "(relative stereo) [Compound 16c]", "values": [{"measurement": "IC50", "setting": "dopamine transporter; IC50 (nM) DAT, Table 2", "value": 17.9, "unit": "nM"}, {"measurement": "SERT/DAT", "setting": "dopamine transporter; Table 2", "value": 63}, {"measurement": "IC50", "setting": "serotonin transporter; [1]", "value": "[…]"}]}, {"smiles": "COC(=O)[C@@H]1[C@H]2C[C@H](O)[C@@H](C[C@H]1c1ccc(F)cc1)N2C", "note": "(relative stereo) [Compound 17c, 2βCarbomethoxy-3α-(4-fluorophenyl)-6β-hydroxy-8-methyl-8-azabicyclo{3.2.1}octane]", "values": [{"measurement": "IC50", "setting": "dopamine transporter; IC50 (nM) DAT, Table 2", "value": 739, "unit": "nM"}, {"measurement": "SERT/DAT", "setting": "dopamine transporter; Table 2", "value": 8}, {"measurement": "IC50", "setting": "serotonin transporter; [1]", "value": 5820, "unit": "nM"}]}]}
